The numbers were not newly measured in patent publication US20260334526A1 (NICOVENTURES TRADING LIMITED, priority 2022, published 2026), which cites them from elsewhere.

For series [1] the following is noted: for solubility: fats, alcohols, water.
For series [2] the following is noted: nicotine solution at pH=6 relative to pH 8.1; perfusion cell; Adrian et al.

`CC(/C=C/C=C(C)/C=C/C(=O)O)=C\C=C\C=C(C)\C=C\C=C(C)\C=C\C(=O)O` (stereo in doubt) [norbixin, (2E,4E,6E,8E,10E,12E,14E,16E,18E)-4,8,13,17-tetramethylicosa-2,4,6,8,10,12,14,16,18-nonaenedioic acid]: the solubility entry in series [1] was “water-soluble”.
Regarding `COC(=O)/C=C/C(C)=C\C=C\C(C)=C\C=C\C=C(C)\C=C\C=C(C)\C=C\C(=O)O` [bixin, (2E,4E,6E,8E,10E,12E,14E,16Z,18E)-20-methoxy-4,8,13,17-tetramethyl-20-oxoicosa-2,4,6,8,10,12,14,16,18-nonaenoic acid], the solubility result in series [1] was “soluble in fats and alcohols but insoluble in water”. For the same compound, the chemical stability entry in series [1] (when isolated) is reported as “chemically unstable when isolated”.
As to `CN1CCCC1c1cccnc1` (stereo not shown) [nicotine], the “reduction of diffusion rate across human buccal tissue (factor)” value in series [2] is ~ 7.
